Results taken from ChEMBL document CHEMBL1138462 (J Med Chem, 2009).
Active and inactive are the calls of the source. The rule behind the calls is not given here.

How the values were obtained:
[1] = molecular target: Cannabinoid receptor 2 (Homo sapiens, UniProt P34972); test: Binding affinity to CB2 receptor
[2] = molecular target: T1, Cannabinoid receptor 1 (Homo sapiens, UniProt P21554); type: functional, cell-based, CHO-K1
Description: Antagonist activity at human CB1 receptor expressed in CHOK1 cells assessed as inhibition of CP-55940-induced response after 10 mins by GTPgamma[35S] binding assay

[3] = molecular target: T1, Cannabinoid receptor 1; test: Binding affinity to CB1 receptor
[4] = species: Rattus norvegicus; test: Toxicity in Sprague-Dawley rat assessed as behavioral side effects and rapid respiration at concentration >=10 fold of plasma level; type: organism-based; settings: in vivo
[5] = system: Rattus norvegicus; test: Inhibition of CP-55940-induced catalepsy in rat at >=1 mg/kg, sc administered 15 mins before CP-55940 challenge measured after 90 mins
[6] = Volume of distribution at steady state in rat at 1 mg/kg, iv and 5 mg/kg, po; type: ADME, organism-based; settings: in vivo, read-out: Vdss
[7] = Bioavailability in rat at 1 mg/kg, iv and 5 mg/kg, po; type: ADME, organism-based; settings: in vivo
[8] = system: Rattus norvegicus; test: Inhibition of CP-55940-induced hypothermia in rat at >=1 mg/kg, sc administered 15 mins before CP-55940 challenge measured after 65 mins
[9] = system: Mus musculus; test: Antiobesity activity in diet-induced obese mouse assessed as reduction in food intake at 1 mg/kg, po for 7 days; type: functional; set-up: scale not given: the % may be the effect or the level left
[10] = system: Mus musculus; test: Antiobesity activity in diet-induced obese mouse assessed as reduction in weight gain at 1 mg/kg, po for 7 days; type: functional; set-up: scale not given: the % may be the effect or the level left
[11] = Oral bioavailability in rat up to 50 mg/kg; type: ADME, organism-based; settings: in vivo
[12] = system: Rattus norvegicus; test: Inhibition of CP-55940-induced locomotor activity in rat at >=1 mg/kg, sc administered 15 mins before CP-55940 challenge measured after 25 mins
[13] = system: Rattus norvegicus; test: Inhibition of CP-55940-induced analgesia in rat at >=1 mg/kg, sc administered 15 mins before CP-55940 challenge measured after 45 mins by hot plate method
[14] = system: Rattus norvegicus; test: Antiobesity activity in fast-induced refeeding Sprague-Dawley rat model assessed as reduction in food intake at 1 mg/kg, po administered 30 mins prior to food intake measured every 10 mins for 2 hrs; type: functional; set-up: scale not given: the % may be the effect or the level left
[15] = Half life in rat at 1 mg/kg, iv and 5 mg/kg, po; type: ADME, organism-based; settings: in vivo
[16] = species: Rattus norvegicus; test: Anorectic activity in acute food intake rat model assessed as decrease in food intake; type: functional, organism-based
[17] = Solubility in sodium taurocholate/phosphatidyl choline salt medium; type: physicochemical
[18] = system: Mus musculus; test: Inhibition of CP-55940-induced catalepsy in ICR mouse at 1 mg/kg, sc administered 15 mins before CP-55940 challenge measured after 90 mins; type: functional, organism-based; set-up: dose 1 mg/kg
[19] = species: Rattus norvegicus; test: Anorectic activity in acute food intake rat model assessed as increase in fat oxidation; type: functional, organism-based
[20] = Aqueous solubility of the compound; type: physicochemical; settings: buffer
[21] = system: Mus musculus; test: Inhibition of CP-55940-induced locomotor activity in ICR mouse at 1 mg/kg, sc administered 15 mins before CP-55940 challenge measured after 25 mins; type: functional, organism-based; set-up: dose 1 mg/kg
[22] = system: Mus musculus; test: Inhibition of CP-55940-induced analgesia in ICR mouse at 1 mg/kg, sc administered 15 mins before CP-55940 challenge measured after 45 mins by hot plate method; type: functional, organism-based; set-up: dose 1 mg/kg
[23] = species: Rattus norvegicus; test: Anorectic activity in acute food intake rat model assessed as increase in energy expenditure; type: functional, organism-based
[24] = system: Mus musculus; test: Inhibition of CP-55940-induced hypothermia in ICR mouse at 1 mg/kg, sc administered 15 mins before CP-55940 challenge measured after 65 mins; type: functional, organism-based; set-up: dose 1 mg/kg
[25] = Oral bioavailability in rat at 500 mg/kg; type: ADME, organism-based; settings: in vivo
[26] = system: Rattus norvegicus; test: Toxicity in po dosed rat after 4 days; type: organism-based; settings: in vivo, 96 h
[27] = system: Mus musculus; test: Antiobesity activity in diet-induced obese mouse assessed as reduction in weight gain at 3 mg/kg, po for 7 days; type: functional; set-up: scale not given: the % may be the effect or the level left
[28] = system: Rattus norvegicus; test: Antiobesity activity in fast-induced refeeding Sprague-Dawley rat model assessed as reduction in food intake at 3 mg/kg, po administered 30 mins prior to food intake measured every 10 mins for 2 hrs; type: functional; set-up: scale not given: the % may be the effect or the level left
[29] = system: Mus musculus; test: Antiobesity activity in diet-induced obese mouse assessed as reduction in food intake at 3 mg/kg, po for 7 days; type: functional; set-up: scale not given: the % may be the effect or the level left

T1 sequence (P21554 whole entry): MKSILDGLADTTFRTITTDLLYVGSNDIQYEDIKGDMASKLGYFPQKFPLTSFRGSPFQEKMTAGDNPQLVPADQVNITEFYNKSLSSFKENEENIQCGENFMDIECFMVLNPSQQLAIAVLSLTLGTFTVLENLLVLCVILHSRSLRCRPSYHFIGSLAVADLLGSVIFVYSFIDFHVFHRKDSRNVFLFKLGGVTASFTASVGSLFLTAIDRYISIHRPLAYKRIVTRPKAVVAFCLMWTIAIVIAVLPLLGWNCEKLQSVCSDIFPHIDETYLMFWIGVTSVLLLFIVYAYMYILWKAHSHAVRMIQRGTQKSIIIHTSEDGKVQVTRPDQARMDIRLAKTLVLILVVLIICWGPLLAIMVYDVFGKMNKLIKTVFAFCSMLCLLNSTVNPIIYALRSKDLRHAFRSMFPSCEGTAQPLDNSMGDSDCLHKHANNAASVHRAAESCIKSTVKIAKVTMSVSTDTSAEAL
Chain of Cannabinoid receptor 2 (P34972 whole entry): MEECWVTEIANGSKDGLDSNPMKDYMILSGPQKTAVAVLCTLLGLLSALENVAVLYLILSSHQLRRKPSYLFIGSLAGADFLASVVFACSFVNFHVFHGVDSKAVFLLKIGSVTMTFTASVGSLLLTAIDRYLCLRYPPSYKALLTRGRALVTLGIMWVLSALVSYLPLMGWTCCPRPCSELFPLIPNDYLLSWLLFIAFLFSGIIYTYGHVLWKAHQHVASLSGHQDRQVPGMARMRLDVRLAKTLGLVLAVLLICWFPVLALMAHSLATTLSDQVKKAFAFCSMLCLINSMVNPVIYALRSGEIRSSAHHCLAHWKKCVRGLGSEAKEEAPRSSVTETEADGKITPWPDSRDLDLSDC

Compound	Ki [1] [nM]	Ki [2] [nM]	Ki [3] [nM]	also measured
CC(F)(F)CN1CCc2c(nn(-c3ccccc3Cl)c2-c2ccc(Cl)cc2)C1			30	
O=C1c2nn(-c3ccccc3Cl)c(-c3ccc(Cl)cc3)c2CCN1C1CCCC1			24	
Cc1nc2c(-c3ccc(Cl)cc3)n(-c3ccccc3Cl)nc2c(=O)n1CC(F)(F)F	> 10000			Activity [4]: Toxic
CC(F)(F)CN1CCOc2c(nn(-c3ccccc3Cl)c2-c2ccc(Cl)cc2)C1=O				Activity [5]: Active; Vd [6]: 2.6 L/kg; bioavailability [7]: 42%; Activity [8]: Active; Activity [9]: 23%; Activity [10]: 5.9%; bioavailability [11]: 51%; Activity [12]: Active; Activity [13]: Active; Activity [14]: 40%
CC(F)(F)CN1CCc2c(nn(-c3ccccc3Cl)c2-c2ccc(Cl)cc2)C1=O	> 10000			Vd [6]: 2.6 L/kg; half-life [15]: 3.6 h; bioavailability [7]: 99%; Activity [16]: Dose-dependent effect; solubility [17]: 18.5 ugA/ml; Activity [18]: Active; Activity [4]: Non-toxic; Activity [19]: Active; solubility [20]: 0.2 ugA/ml; Activity [21]: Active; Activity [22]: Active; Activity [23]: Active; Activity [24]: Active; bioavailability [25]: 50%; Activity [26]: Non-toxic
CC(C)N1CCc2c(nn(-c3ccccc3Cl)c2-c2ccc(Cl)cc2)C1=O	> 10000	5.5	2.5	
Cc1c(C(=O)NN2CCCCC2)nn(-c2ccc(Cl)cc2Cl)c1-c1ccc(Cl)cc1 [RIMONABANT]				Activity [27]: 5.2%; Activity [28]: 43%; Activity [29]: 21%
O=C1c2nn(-c3ccccc3Cl)c(-c3ccc(Cl)cc3)c2OCCN1CC(F)(F)F	> 10000	1.5	1.9	

Second part, led by results:

Ki [1] [nM]	Ki [2] [nM]	Ki [3] [nM]	Compound	also measured
162			COC(C)(C)CN1CCc2c(nn(-c3ccccc3Cl)c2-c2ccc(Cl)cc2)C1=O	
1780	9.8	2.5	CC(C)CN1CCc2c(nn(-c3ccccc3Cl)c2-c2ccc(Cl)cc2)C1=O	
> 10000	4.8	1.3	CC(C)N1CCOc2c(nn(-c3ccccc3Cl)c2-c2ccc(Cl)cc2)C1=O	
> 10000	0.7	1.4	CCC(F)(F)CN1CCOc2c(nn(-c3ccccc3Cl)c2-c2ccc(Cl)cc2)C1=O	
6810	11	4.7	CC(C)(C)N1CCc2c(nn(-c3ccccc3Cl)c2-c2ccc(Cl)cc2)C1=O	
> 10000	3.1	1.7	O=C1c2nn(-c3ccccc3Cl)c(-c3ccc(Cl)cc3)c2CCN1CC(F)(F)F	
23400	25	4.7	CCN1CCc2c(nn(-c3ccccc3Cl)c2-c2ccc(Cl)cc2)C1=O	
